From patent US10703748B2, “Diazanaphthalen-3-yl carboxamides and preparation and use thereof” (Samumed, LLC, priority 2017, dated 2020)

Key:
IL-6 = IL-6 inhibition in LPS-stimulated human peripheral blood mononuclear cells (HTRF); conditions: Homo sapiens, PBMC; for EC50: 22 h; for inhibition at 10 µM: read-out: percentage in parentheses after EC50 >10
[1] = test system: SW480 colon carcinoma cells; assay: Cell viability assay (CellTiter-Glo); conditions: Homo sapiens; for EC50: SW480, 96 h; for inhibition at 10 µM: SW480, read-out: percent inhibition at 10 μM
[2] = test system: Wnt-responsive Sp5-Luc reporter in SW480 colon carcinoma cells; assay: Screening assay for Wnt activity (Sp5-Luc reporter gene assay); conditions: Homo sapiens; for EC50: SW480; for inhibition at 10 µM: SW480, read-out: percent inhibition at 10 μM
GSK3β kinase = GSK3β kinase (Homo sapiens, UniProt P49841); assay: GSK3β kinase activity (Ser/Thr 09 peptide Z-lyte FRET assay); assay type: biochemical; conditions: recombinant kinase, 46 μM ATP, one hour at room temperature; read-out: EC50
[3] = test system: α-smooth muscle actin (aSMA) positive LL29 cells; assay: Inhibition of the fibrotic process: αSMA staining in TGF-β1 treated LL29 fibroblasts from IPF patients; conditions: Homo sapiens, Fibroblast; for EC50: 96 h; for inhibition at 10 µM: read-out: percentage in parentheses after EC50 >10
DYRK1A kinase = DYRK1A kinase (Homo sapiens, UniProt Q13627); assay: DYRK1A kinase activity (Ser/Thr 18 peptide Z-lyte FRET assay); assay type: biochemical; conditions: recombinant DYRK1A, 30 μM ATP, one hour at room temperature;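 note: kinase activity read as coumarin/fluorescein emission ratio after development step, with unphosphorylated and phosphorylated peptide forms setting 0% and 100% controls, values from dose-response curves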

GSK3β kinase, sequence (P49841 whole entry): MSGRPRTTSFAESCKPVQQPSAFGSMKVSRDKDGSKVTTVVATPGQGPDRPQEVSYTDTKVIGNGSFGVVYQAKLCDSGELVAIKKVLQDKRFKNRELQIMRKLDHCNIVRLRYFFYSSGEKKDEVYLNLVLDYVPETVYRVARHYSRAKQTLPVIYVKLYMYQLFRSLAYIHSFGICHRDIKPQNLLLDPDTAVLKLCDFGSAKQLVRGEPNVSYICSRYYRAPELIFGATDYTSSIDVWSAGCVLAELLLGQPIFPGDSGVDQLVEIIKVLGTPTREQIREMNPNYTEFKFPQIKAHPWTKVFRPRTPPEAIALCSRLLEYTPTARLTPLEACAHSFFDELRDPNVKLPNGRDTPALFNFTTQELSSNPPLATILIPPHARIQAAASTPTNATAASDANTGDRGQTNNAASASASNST

Row | Compound | EC50 (IL-6) | EC50 [1] | EC50 [2] | EC50 (GSK3β kinase) | EC50 (DYRK1A kinase) | inhibition at 10 µM (IL-6) | EC50 [3] | inhibition at 10 µM [1] | inhibition at 10 µM [2] | inhibition at 10 µM [3]
1 | CCN(CC)CC(=O)Nc1ncc2ccc(-c3cnn(C)c3CN3CCCCC3)cc2n1 [Compound 1189, 2-(Diethylamino)-N-(7-(1-methyl-5-(piperidin-1-ylmethyl)-1H-pyrazol-4-yl)quinazolin-2-yl)acetamide] | > 10 µM | > 10 µM | > 10 µM | 1690 nM | 186 nM | 7.9% | > 10 µM | 17.4% | 29.5% | 18%
2 | Cn1cc(-c2ccc3cnc(NC(=O)C4CCN(CC5(C)COC5)CC4)nc3c2)nn1 [Compound 1254, N-(7-(1-Methyl-1H-1,2,3-triazol-4-yl)quinazolin-2-yl)-1-((3-methyloxetan-3-yl)methyl)piperidine-4-carboxamide] | > 10 µM | > 10 µM | > 10 µM | 69 nM | 104 nM | 3.8% | 6.97 µM | 11.2% | 31.7% | –
3 | O=C(Nc1ncc2ccc(-c3cnco3)cc2n1)C1CCN(C(=O)CN2CCCC2)CC1 [Compound 1438, N-(7-(Oxazol-5-yl)quinazolin-2-yl)-1-(2-(pyrrolidin-1-yl)acetyl)piperidine-4-carboxamide] | > 10 µM | > 10 µM | > 10 µM | 5180 nM | 100 nM | 9.6% | > 10 µM | 14.7% | 10% | 29.6%
4 | Cc1ncc(-c2ccc3cnc(NC(=O)[C@H]4C[C@H](N5CCOCC5)C4)nc3c2)o1 [Compound 1462, trans-N-(7-(2-Methyloxazol-5-yl)quinazolin-2-yl)-3-morpholinocyclobutane-1-carboxamide] | > 10 µM | > 10 µM | > 10 µM | 707 nM | 370 nM | 0% | > 10 µM | 20.9% | 13.6% | 14.5%
5 | Cc1ncc(-c2ccc3cnc(NC(=O)C4CCN(CC(C)(F)F)CC4)nc3c2)o1 [Compound 1471, 1-(2,2-Difluoropropyl)-N-(7-(2-methyloxazol-5-yl)quinazolin-2-yl)piperidine-4-carboxamide] | > 10 µM | > 10 µM | > 10 µM | 578 nM | 46 nM | 1.8% | > 10 µM | 11.3% | 17.8% | 43.6%
6 | Cc1nnc(-c2ccc3cnc(NC(=O)CN4C5CCC4COC5)nc3c2)s1 [Compound 1634, 2-(3-Oxa-8-azabicyclo[3.2.1]octan-8-yl)-N-(7-(5-methyl-1,3,4-thiadiazol-2-yl)quinazolin-2-yl)acetamide] | > 10 µM | > 10 µM | > 10 µM | 224 nM | 342 nM | 5.4% | > 10 µM | 13.7% | 16.4% | 18.3%
7 | CN(C)Cc1ccc(C(=O)Nc2cc3cc(-c4cnn(C)c4)cnc3cn2)cc1 [Compound 2890, 4-((Dimethylamino)methyl)-N-(3-(1-methyl-1H-pyrazol-4-yl)-1,7-naphthyridin-6-yl)benzamide] | > 10 µM | 3.86 µM | 3.58 µM | > 10000 nM | 35 nM | 8.6% | > 10 µM | – | – | 29.4%
8 | CN1CCc2ccc(C(=O)Nc3cc4cc(-c5cnn(C)c5)cnc4cn3)cc2C1 [Compound 2922, 2-Methyl-N-(3-(1-methyl-1H-pyrazol-4-yl)-1,7-naphthyridin-6-yl)-1,2,3,4-tetrahydroisoquinoline-7-carboxamide] | > 10 µM | > 10 µM | 2.42 µM | > 10000 nM | 36 nM | 3.8% | > 10 µM | 28.8% | – | 47.2%
9 | Cn1cc(-c2cnc3cnc(NC(=O)c4ccc5nccnc5c4)cc3c2)cn1 [Compound 2936, N-(3-(1-Methyl-1H-pyrazol-4-yl)-1,7-naphthyridin-6-yl)quinoxaline-6-carboxamide] | > 10 µM | > 10 µM | > 10 µM | > 10000 nM | > 10000 nM | 8.3% | > 10 µM | 17.8% | 11.9% | 21.6%

The next lines start with results.

Row | EC50 (IL-6) | EC50 [1] | EC50 [2] | EC50 (GSK3β kinase) | EC50 (DYRK1A kinase) | Compound | inhibition at 10 µM (IL-6) | EC50 [3] | inhibition at 10 µM [1] | inhibition at 10 µM [2] | inhibition at 10 µM [3]
10 | > 10 µM | 5.37 µM | 3.15 µM | 9430 nM | 35 nM | CN1CCC(Oc2ccc(C(=O)Nc3ncc4ccc(-c5cnn(C)c5)cc4n3)cc2)CC1 [Compound 1052, N-(7-(1-Methyl-1H-pyrazol-4-yl)quinazolin-2-yl)-4-((1-methylpiperidin-4-yl)oxy)benzamide] | 3.8% | 8.74 µM | – | – | –
11 | > 10 µM | > 10 µM | > 10 µM | 112 nM | 171 nM | Cn1cc(-c2ccc3cnc(NC(=O)C(C)(C)F)nc3c2)nn1 [Compound 1239, 2-Fluoro-2-methyl-N-(7-(1-methyl-1H-1,2,3-triazol-4-yl)quinazolin-2-yl) propanamide] | 7.3% | > 10 µM | 17.2% | 47.4% | 13.5%
12 | 8.81 µM | > 10 µM | > 10 µM | 377 nM | 391 nM | Cn1cncc1-c1ccc2cnc(NC(=O)C3CCC(F)(F)CC3)nc2c1 [Compound 1306, 4,4-Difluoro-N-(7-(1-methyl-1H-imidazol-5-yl)quinazolin-2-yl)cyclohexane-1-carboxamide] | – | 1.8 µM | 43.7% | 42.4% | –
13 | > 10 µM | > 10 µM | > 10 µM | 2330 nM | 246 nM | Cc1ncc(-c2ccc3cnc(NC(=O)N4CCC(N5CCOCC5)CC4)nc3c2)o1 [Compound 1472, N-(7-(2-Methyloxazol-5-yl)quinazolin-2-yl)-4-morpholinopiperidine-1-carboxamide] | 7.6% | > 10 µM | 16.7% | 1.6% | 33.9%
14 | > 10 µM | > 10 µM | 1.51 µM | 254 nM | 113 nM | Cc1ncc(-c2ccc3cnc(NC(=O)Cn4ccnc4)nc3c2)o1 [Compound 1495, 2-(1H-Imidazol-1-yl)-N-(7-(2-methyloxazol-5-yl)quinazolin-2-yl)acetamide] | 3.2% | > 10 µM | 25.5% | – | 48.5%
15 | > 10 µM | 2.21 µM | 1.2 µM | 340 nM | 65 nM | Cc1nnc(-c2ccc3cnc(NC(=O)c4ccnc(N5CCN(C)CC5)c4)nc3c2)s1 [Compound 1656, N-(7-(5-Methyl-1,3,4-thiadiazol-2-yl)quinazolin-2-yl)-2-(4-methylpiperazin-1-yl)isonicotinamide] | 6% | 1.76 µM | – | – | –
16 | > 10 µM | > 10 µM | > 10 µM | 2450 nM | 867 nM | Cn1cc(-c2cnc3cnc(NC(=O)[C@H]4CCCN4)cc3c2)cn1 [Compound 2782, (R)—N-(3-(1-Methyl-1H-pyrazol-4-yl)-1,7-naphthyridin-6-yl)pyrrolidine-2-carboxamide] | 4.3% | 2.4 µM | 18.8% | 2.2% | –
17 | > 10 µM | > 10 µM | > 10 µM | 3470 nM | 513 nM | CC(C(=O)Nc1cc2cc(-c3cnn(C)c3)cnc2cn1)N1CCCCC1 (stereo not shown) [Compound 2791, N-(3-(1-Methyl-1H-pyrazol-4-yl)-1,7-naphthyridin-6-yl)-2-(piperidin-1-yl) propanamide] | 5.3% | 6.13 µM | 24.8% | 10.5% | –
18 | > 10 µM | 3.88 µM | > 10 µM | > 10000 nM | 49 nM | CN(C)CCNc1cc(C(=O)Nc2cc3cc(-c4cnn(C)c4)cnc3cn2)ccn1 [Compound 2884, 2-((2-(Dimethylamino)ethyl)amino)-N-(3-(1-methyl-1H-pyrazol-4-yl)-1,7-naphthyridin-6-yl)isonicotinamide] | 9.4% | 5.24 µM | – | 44.1% | –
19 | > 10 µM | > 10 µM | > 10 µM | > 10000 nM | 39 nM | CN1CCN(Cc2cccc(C(=O)Nc3cc4cc(-c5cnn(C)c5)cnc4cn3)c2)CC1 [Compound 2892, N-(3-(1-Methyl-1H-pyrazol-4-yl)-1,7-naphthyridin-6-yl)-3-((4-methylpiperazin-1-yl)methyl)benzamide] | 16.5% | 3.96 µM | 36% | 46.9% | –
